Entries after “also recorded” stand apart in the source; their conditions may differ.
Columns and labels:
[1] = tested on: mitotic cells in the ventricular zone (VZ); test: symmetric versus asymmetric divisions (Par3 distribution) in the ventricular zone of mouse embryos; type: in vivo; settings: topical or oral administration to pregnant mice
Text: Taking advantage of the ready uptake and penetration through the placental barrier of applicant's small molecule Wnt modulators, applicant designed a series of experiments to investigate symmetric versus asymmetric divisions in the ventricular zone (VZ) of the brain during mouse embryonic development. Timed pregnant mice were topically treated for various time periods (1-3 days) with DMSO (vehicle control), the CBP/catenin antagonist ICG-001 or the p300/catenin antagonist IQ-1. Using a previously described protocol (56), the localization of […] (Par3) and DNA was examined in mitotic cells in the VZ. Par3 distributes symmetrically in cells that divide symmetrically and asymmetrically in cells that divide asymmetrically, whereas the DNA distributes symmetrically between the 2 cells. Using fluorescence microscopy, the percentage of mitotic cells dividing symmetrically or asymmetrically could be quantified. […] Antagonizing the CBP/catenin interaction with ICG-001 had no apparent effect yielding similarly, approximately 21% asymmetric divisions. […] Importantly, this decrease in asymmetric divisions upon treatment with IQ-1 could be rescued back essentially to control levels (i.e. ˜21%) by treatment with a 2-fold excess of ICG-001. Even further divergence in symmetric versus asymmetric divisions could be seen upon prolonged treatments. For example, treatment with IQ-1 (i.e., antagonizing p300/catenin interaction leading to increased usage of CBP) for 3 days (E13.5-16.5) decreased asymmetric divisions compared to control from 31% to 7%. […] This reporter mouse expresses EGFP, driven by the Tis21 promoter, in cells that have undergone neurogenic differentiative divisions.
For example, Bultje et al (Bultje R Neuron 63, 189-202, 2009) describe an assay to measure asymmetric distributions in the ventricular zone (vz) to evaluate asymmetric divisions during neurogenesis. Essentially this involves treating the animal (either adult or in utero) for a set period of time with compounds (either p.o., s.c., i.v. or topically) with compounds and then sacrificing the animal and examining the Par3 distribution (e.g., via immunohistochemistry) in mitotic cells vs. DNA distribution (e.g., using DAPI staining) Par3 distributes equally among the two daughter cells during symmetric division and unequally (essentially all in one daughter cell) during asymmetric differentiation.

[2] = tested on: cerebral deposition of Aβ; test: Aβ deposition in penta-transgenic mouse model of Alzheimer's disease; type: in vivo; settings: 50 mg/kg/day, 2 months, immunohistochemistry, vs saline
Experimental: Applicant utilized a penta-transgenic mouse model of AD, which normally develops massive cerebral deposition of Aβ starting at 6 weeks of age. These mice were treated with either (A) ICG-001 (50 mg/kg/day) or (B) saline for 2 months. […] However, the effects of PS-1 mutations on the stability of beta-catenin, TCF/beta-catenin signaling, and thereby its potential role in AD remain controversial. […] In the CNS, EpB2 expression is associated with axonal guidance (16). […] In initial in vivo studies, applicant treated penta-transgenic mice that over express mutant APP(695) (Swedish (K670N,M671L), Florida ([…]) and London (V717I)) and PS-1 (M146L and L286V) mutations with ICG-001 for 2 months (months 2-4). These mice normally develop massive cerebral deposition of Aβ starting at 6 weeks of age.

[3] = topical treatment of pregnant mice throughout pregnancy, offspring outcome; type: in vivo, mouse; settings: mothers treated topically 0.5M
Text: Acute Promyelocytic Leukemia (APL) is unique among myeloid leukemias due to its sensitivity to all-trans retinoic acid (ATRA), a derivative of vitamin A. Treatment with ATRA dissociates the NCOR-HDACL complex from RAR and allows DNA transcription and differentiation of the immature leukemic promyelocytes into mature granulocytes by targeting the oncogenic transcription factor and its aberrant action. […] A large number of scientific studies have also investigated a possible role for vitamin D in cancer prevention, including colon, prostate, breast, pancreatic and skin cancer. […] However, there are also reports of synergistic effects on the activation of gene expression by ATRA and Wnt for example (47). […] This is the same region of these coactivator proteins (i.e., CBP and p300) that partners with catenin (both beta and gamma) and the CBP/catenin antagonists (e.g., ICG-001) also bind to this region. These nuclear receptor ligands have many of the same differentiating effects on stem cell populations that applicant has observed with specific CBP/catenin antagonists. Although, both Vitamin A and D are required during development and have many beneficial health effects in adulthood, both are teratogenic at high levels. […]

[4] = tested on: drug resistant leukemia stem cells; test: NOD/SCID/IL2rγ-/- mouse model of engrafted human CML; type: in vivo
Text: Chronic myelogenous leukemia (CML). Despite the stunning clinical success achieved to date in chronic phase CML patients treated with the BCR-ABL antagonist Gleevec/Imatinib (IM), responses in advanced phase patients are often short-lived, and patients invariably undergo disease progression. Furthermore, resistance to IM develops in 2% to 4% of patients annually and IM dose escalation is generally not sufficient to control the disease. Several mechanisms that contribute to tyrosine kinase inhibitor (TKI) resistance have been proposed including the insensitivity of quiescent CML stem cells to TKIs due to low expression of BCR-ABL and the emergence of drug resistant leukemic clones associated with increased nuclear catenin levels, a hallmark of increased Wnt/catenin transcription. […] Epigenetic silencing of negative regulators of the Wnt signaling cascade is also frequently associated with leukemias, including CML. […] The mice treated with one course (28 days from day 13-41 after leukemia engraftment) of CBP/catenin antagonist plus bcr-abl antagonist are essentially cured of leukemia and live as long (approximately 2 years) as their littermates that were never engrafted with leukemia.

hair follicle = settings: cited from earlier work

Which results are given for `O=C1[C@H](Cc2ccc(O)cc2)N2C(=O)CCN(C(=O)NCc3ccccc3)[C@H]2CN1Cc1cccc2ccccc12` [ICG-001]?
effect on number of asymmetric divisions [1]: does not affect the number of asymmetric divisions; amyloid plaque formation / Aβ staining [2]: significant decrease in amyloid plaque formation; also recorded: decrease in Aβ staining; weight and size of offspring at 6 weeks of age ([3]; ~E0.5 to ~E20): normal weight and size; effects on germ cell populations of offspring ([3]; second generation bred): no deleterious effects on germ cell populations; effect on normal endogenous hematopoiesis ([4]; mouse, in vivo): without deleterious effects to normal endogenous hematopoiesis; elimination of drug resistant leukemia stem cells ([4]; with bcr-abl antagonist): drug resistant leukemia stem cells can be eliminated; survivin expression (hair follicle): decreased survivin expression; hair fiber elongation (hair follicle; dose-dependent): significantly reduced hair fiber elongation

Source: patent publication US9371330B2, “Substituted pyrazino[1,2-a]pyrimidines useful as CBP/catenin antagonists for enhancing asymmetric division of somatic stem cells” (University of Southern California, priority 2011, dated 2016)
